# ChEMBL document CHEMBL3046751, “Effects of Pyridalyl on ATP Concentrations in Cultured Sf9 Cells” (J Pestic Sci, 2005)
# Calls of active or inactive are those of the source. The rule behind the calls is not given here.
# Tests used:
# Format in all cases: functional, cell-based
# [1] = test system: Sf9; test: Reduction of ATP level in Spodoptera frugiperda (fall armyworm) Sf9 cells at 0.01 to 10 uM after 4 hr by luminescent cell viability assay
# [2] = test system: Sf9; test: Reduction of ATP level in Spodoptera frugiperda (fall armyworm) Sf9 cells after 20 to 24 hr by luminescent cell viability assay
# [3] = test system: Sf9; test: Reduction of ATP level in Spodoptera frugiperda (fall armyworm) Sf9 cells at 0.1 to 10 uM after 4 hr by luminescent cell viability assay
# [4] = test system: Sf9; test: Reduction of ATP level in Spodoptera frugiperda (fall armyworm) Sf9 cells at 1 uM after 8 hr by luminescent cell viability assay
# [5] = test system: Sf9; test: Reduction of ATP level in Spodoptera frugiperda (fall armyworm) Sf9 cells at 1 to 10 uM after 20 to 24 hr by luminescent cell viability assay
# [6] = test system: Sf9; test: Reduction of ATP level in Spodoptera frugiperda (fall armyworm) Sf9 cells at 10 uM after 2 hr by luminescent cell viability assay
# [7] = test system: Sf9; test: Cytotoxicity against Spodoptera frugiperda (fall armyworm) Sf9 cells at 0.01 uM
# [8] = test system: Sf9; test: Reduction of ATP level in Spodoptera frugiperda (fall armyworm) Sf9 cells at 0.1 uM after 24 hr by luminescent cell viability assay
# [9] = test system: Sf9; test: Reduction of ATP level in Spodoptera frugiperda (fall armyworm) Sf9 cells at 0.01 uM after 24 hr by luminescent cell viability assay
# [10] = test system: Sf9; test: Reduction of ATP level in Spodoptera frugiperda (fall armyworm) Sf9 cells at 10 uM after 4 hr by luminescent cell viability assay
# [11] = test system: Sf9; test: Reduction of ATP level in Spodoptera frugiperda (fall armyworm) Sf9 cells at 10 uM after 6 to 24 hr by luminescent cell viability assay
# [12] = test system: Sf9; test: Reduction of ATP level in Spodoptera frugiperda (fall armyworm) Sf9 cells at 1 to 10 uM after 4 hr by luminescent cell viability assay
# [13] = test system: Sf9; test: Increase of ATP level in Spodoptera frugiperda (fall armyworm) Sf9 cells at 10 uM after 6 to 24 hr by luminescent cell viability assay
# [14] = test system: Sf9; test: Reduction of ATP level in Spodoptera frugiperda (fall armyworm) Sf9 cells at 0.1 to 1 uM after 6 to 24 hr by luminescent cell viability assay
smiles,measurement,setting,value
Cc1nn(C)c(Oc2ccccc2)c1/C=N/OCc1ccc(C(=O)OC(C)(C)C)cc1,Activity,[1],inactive
N#CC(C#N)=NNc1ccccc1Cl,Activity,[2],Dose-dependent effect
same,Activity,[3],Active
FC(F)(F)c1ccc(OCCCOc2c(Cl)cc(OCC=C(Cl)Cl)cc2Cl)nc1,Activity,[2],Dose-dependent effect
same,Activity,[4],Active
same,Activity,[5],Active
same,Activity,[6],Active
same,Activity,[7],inactive
same,Activity,[8],Active
same,Activity,[9],inactive
CCCCCCCCCCCCC1=C(OC(C)=O)C(=O)c2ccccc2C1=O,Activity,[2],Dose-dependent effect
same,Activity,[10],Active
C=C(C)[C@H]1Cc2c(ccc3c2O[C@@H]2COc4cc(OC)c(OC)cc4[C@@H]2C3=O)O1,Activity,[3],inactive
O=c1[nH]cc(F)c(=O)[nH]1,Activity,[11],inactive
CCOCn1c(-c2ccc(Cl)cc2)c(C#N)c(Br)c1C(F)(F)F,Activity,[2],Dose-dependent effect
same,Activity,[12],Active
COc1ccc(C[C@H]2NC[C@H](O)[C@H]2OC(C)=O)cc1,Activity,[13],Active
same,Activity,[14],inactive
